The text below walks through data of PubChem BioAssay AID1259408 (Genetic Toxicology Data Bank (GENE-TOX), 2018).

The structures appear in SMILES notation. Calls of active or inactive are those of the source. The rule behind the calls is not given here.

The data set deals with GENE-TOX genotoxicity assays, various organisms and cells. In words: GENE-TOX mutagenicity studies. Particulars: for call: Assay Type: In vivo carcinogenicity studies. The source says: GENE-TOX provides genetic toxicology (mutagenicity) test data from expert peer review of open scientific literature for more than 3,000 chemicals from the United States Environmental Protection Agency (EPA). GENE-TOX was established to select assay systems for evaluation, review data in the scientific literature, and recommend proper testing protocols and evaluation procedures for these systems.
GENE-TOX covers the years 1991 - 1998. It is no longer updated.
This is an archive assay for GENE-TOX mutagenicity studies.

[1] abbreviates: Species/Cell Type: Hordeum vulgare (barley), Assay Type: Chromosome aberrations, Assay Code: HOC+, Evaluation Type: Evaluation A (Pre-1980).
The mark [2] stands for this setting: Species/Cell Type: Salmonella typhimurium (one or more of the five standard strains: TA98, TA100, TA1535, TA1537, and TA1538), Assay Type: Histidine reverse gene mutation, Ames assay, Assay Code: SALT, Evaluation Type: Evaluation A (Pre-1980).
The mark [3] stands for this setting: Species/Cell Type: Mammalian polychromatic erythrocytes, Assay Type: Micronucleus test, chromosome aberrations, Assay Code: MNT+, Evaluation Type: Evaluation A (Pre-1980).
The mark [4] stands for this setting: Species/Cell Type: Nonhuman, Assay Code: CCG+, Evaluation Type: Evaluation A (Pre-1980).
Setting [5] is: Species/Cell Type: Fischer rat embryo (RLV/1706) cells, Assay Type: Cell transformation, viral enhanced, Assay Code: CTR+, Evaluation Type: Evaluation A (Pre-1980).
The mark [6] stands for this setting: Species/Cell Type: Nonhuman, Assay Type: Sister-chromatid exchange (SCE) in vitro, Assay Code: SC2+D, Dose Response: With dose response, Evaluation Type: Evaluation B (Post-1980).
Where [7] appears, read: Species/Cell Type: Salmonella typhimurium (one or more of the five standard strains: TA98, TA100, TA1535, TA1537, and TA1538), Assay Type: Histidine reverse gene mutation, Ames assay, Assay Code: SAL+*, Activation: With metabolic activation, Evaluation Type: Evaluation A (Pre-1980).
[8] abbreviates: Species/Cell Type: Saccharomyces cerevisiae, Assay Type: Mitotic recombination or gene conversion, Assay Code: YEC+, Evaluation Type: Evaluation A (Pre-1980).
[9] abbreviates: Species/Cell Type: Salmonella typhimurium (one or more of the five standard strains: TA98, TA100, TA1535, TA1537, and TA1538), Assay Type: Histidine reverse gene mutation, Ames assay, Assay Code: SAL+, Evaluation Type: Evaluation A (Pre-1980).
The mark [10] stands for this setting: Species/Cell Type: Nonhuman, Assay Type: Sister-chromatid exchange (SCE) in vitro, Assay Code: SC2T, Evaluation Type: Evaluation B (Post-1980).

Regarding `CN1CCN(CCCN2c3ccccc3Sc3ccc(C(F)(F)F)cc32)CC1`, the mutagenic call reads like this: under setting [1], “active; positive”; (Species/Cell Type: Mammalian polychromatic erythrocytes, Assay Type: Micronucleus test, chromosome aberrations, Assay Code: MNT+, Evaluation Type: Evaluation B (Post-1980)) “active; positive”.

As to `Cc1ccc2c(C)c(C)[nH]c2c1`, the mutagenic call was “active; positive” (Species/Cell Type: Human lymphocytes, Assay Type: Sister-chromatid exchange (SCE) in vitro, Assay Code: SCL+, Evaluation Type: Evaluation B (Post-1980)) and “active; positive” (Species/Cell Type: Human, Assay Type: Sister-chromatid exchange (SCE) in vitro, Assay Code: SC1+, Evaluation Type: Evaluation B (Post-1980)).

For the molecule `CCc1nc(N)nc(N)c1-c1ccc(Cl)cc1`, the mutagenic call under setting [2] is “no conclusion”.

On to `CN(C)P(=O)(N(C)C)N(C)C`, for which the mutagenic call (Species/Cell Type: Drosophila melanogaster, Assay Type: Sex-linked recessive lethal gene mutation, Assay Code: SRL+, Evaluation Type: Evaluation A (Pre-1980)) is “active; positive”; the mutagenic call (Species/Cell Type: Drosophila melanogaster, Sex: Male, Assay Type: Heritable translocation test, chromosome aberrations, Assay Code: DHT+, Evaluation Type: Evaluation A (Pre-1980)) is “active; positive”; the mutagenic call under setting [3] was “active; positive”; the mutagenic call (Species/Cell Type: Mouse, Sex: Male, Assay Type: Sperm morphology, Assay Code: SPI+, Evaluation Type: Evaluation A (Pre-1980)) is “active; positive”; the mutagenic call (Species/Cell Type: Nonhuman, Assay Type: Sister-chromatid exchange (SCE) in vitro, Assay Code: SC2+D*, Activation: With metabolic activation, Dose Response: With dose response, Evaluation Type: Evaluation B (Post-1980)) was “active; positive”; the mutagenic call (Species/Cell Type: Rabbit, Sex: Male, Assay Type: Sperm morphology, Assay Code: SPR+, Evaluation Type: Evaluation A (Pre-1980)) is “active; positive”. Moreover, the mutagenic call is, setting by setting: (Species/Cell Type: Rodents, Sex: Male, Assay Type: Dominant lethal test, Assay Code: DLT+, Evaluation Type: Evaluation A (Pre-1980)) “active; positive”; (Species/Cell Type: Tradescantia species, Assay Type: Gene mutation, Assay Code: TRM+D, Dose Response: With dose response, Evaluation Type: Evaluation A (Pre-1980)) “active; positive”. Besides, the call under setting [4] was “active; positive”.

On to `Cc1cc(-c2ccc(N)c(C)c2)ccc1N`, for which the mutagenic call under setting [5] is “active; positive”; the mutagenic call (Species/Cell Type: Human diploid fibroblasts, Assay Type: Unscheduled DNA synthesis (UDS) in vitro, DNA effects, Assay Code: UDHT, Evaluation Type: Evaluation A (Pre-1980)) was “no conclusion”; the mutagenic call under setting [3] was “active; positive”; the mutagenic call under setting [6] is “active; positive”; the mutagenic call under setting [7] was “active; positive”. Also, under setting [4], the call was “active; positive”.

Turning to `Cc1cc2nc3ccc(=[N+](C)C)cc-3sc2cc1N`, the mutagenic call runs as follows: (Species/Cell Type: Bacillus subtilis (H17 vs M45T), Assay Type: Rec-assay, spot test, DNA effects (bacterial DNA repair), Assay Code: REXT, Evaluation Type: Evaluation A (Pre-1980)) “no conclusion”; (Species/Cell Type: Saccharomyces cerevisiae, Assay Type: Mitotic recombination or gene conversion, Assay Code: YECT, Evaluation Type: Evaluation A (Pre-1980)) “no conclusion”.

Take `COc1ccc2nc3cc(Cl)ccc3c(NCCCNCCCl)c2c1`: the mutagenic call is “active; positive” (Species/Cell Type: Chinese hamster ovary (CHO) cells, Assay Type: Forward gene mutation at the HPRT locus, Assay Code: CHO+D, Dose Response: With dose response, Evaluation Type: Evaluation A (Pre-1980)); “inactive; negative” (Species/Cell Type: Human diploid fibroblasts, Assay Type: Unscheduled DNA synthesis (UDS) in vitro, DNA effects, Assay Code: UDH-, Evaluation Type: Evaluation A (Pre-1980)); “active; positive” (Species/Cell Type: Saccharomyces cerevisiae, Assay Type: Forward and reverse gene mutation, mitotic recombination and gene conversion, host-mediated assay, Assay Code: HME+, Evaluation Type: Evaluation A (Pre-1980)); “active; positive” under setting [8]; “active; positive” under setting [9]. The call (Species/Cell Type: Nonhuman, Assay Code: CCGT, Evaluation Type: Evaluation A (Pre-1980)) is listed as “no conclusion”.

`Cl/C=C\CCl`: the mutagenic call under setting [9] was “active; positive”.

For `Nc1ccc(Br)cc1`, the mutagenic call is, setting by setting: (Species/Cell Type: Mouse, Sex: Male, Assay Type: Sperm morphology, Assay Code: SPI-, Evaluation Type: Evaluation A (Pre-1980)) “inactive; negative”; (Species/Cell Type: Nonhuman, Assay Type: Sister-chromatid exchange (SCE) in vivo, Assay Code: SC3T, Evaluation Type: Evaluation B (Post-1980)) “no conclusion”.

In the case of `CN(C)Cc1cc(Br)ccc1OCC(=O)NN`, the mutagenic call (Species/Cell Type: Saccharomyces cerevisiae, Assay Type: Reverse gene mutation, Assay Code: YERT, Evaluation Type: Evaluation A (Pre-1980)) is “no conclusion”.

On to `CCCCOC(=O)C=[N+]=[N-]`, for which, under “Species/Cell Type: Arabidopsis species, Assay Type: Gene mutation, Assay Code: ARM+, Evaluation Type: Evaluation A (Pre-1980)”, the mutagenic call is “active; positive”.

Consider `C=CCN(N=O)C(N)=O`, for which the mutagenic call reads like this: (Species/Cell Type: Arabidopsis species, Assay Type: Gene mutation, Assay Code: ARM+D, Dose Response: With dose response, Evaluation Type: Evaluation A (Pre-1980)) “active; positive”; under setting [8], “active; positive”.

`O=NN1CCNC1=S`: the mutagenic call by setting is: (Species/Cell Type: Mammalian polychromatic erythrocytes, Assay Type: Micronucleus test, chromosome aberrations, Assay Code: MNTT, Evaluation Type: Evaluation A (Pre-1980)) “no conclusion”; under setting [6], “active; positive”; (Species/Cell Type: Rodents, Sex: Male, Assay Type: Dominant lethal test, Assay Code: DLT-, Evaluation Type: Evaluation A (Pre-1980)) “inactive; negative”.

On to `Clc1ccc(Cl)c(-c2cc(Cl)ccc2Cl)c1`, for which, under setting [2], the mutagenic call is “no conclusion”.

Consider `CC(O)c1ccccc1` (stereo not given), for which the mutagenic call (Species/Cell Type: Escherichia coli polA (W3119 vs P3478), Assay Type: Rec-assay, DNA effects (bacterial DNA repair), Assay Code: RE1T, Evaluation Type: Evaluation A (Pre-1980)) was “no conclusion”.

For the molecule `COc1cc2c[n+](C)c3c4cc5c(cc4ccc3c2cc1OC)OCO5`, the mutagenic call under setting [2] is given as “no conclusion”.

As to `CC1=C(C(C)O)c2cc3nc(cc4[nH]c(cc5[nH]c(cc1n2)c(C)c5CCC(=O)O)c(CCC(=O)O)c4C)C(C(C)O)=C3C` (stereo not given), under “Species/Cell Type: Human, Assay Type: Sister-chromatid exchange (SCE) in vitro, Assay Code: SC1T, Evaluation Type: Evaluation B (Post-1980)”, the mutagenic call is given as “no conclusion”.

On to `Nc1nccc2c1[nH]c1ccccc12`, for which the mutagenic call is “active; positive” (Species/Cell Type: Human, Assay Type: Sister-chromatid exchange (SCE) in vitro, Assay Code: SC1+D, Dose Response: With dose response, Evaluation Type: Evaluation B (Post-1980)) and “no conclusion” under setting [10].

On to `O=C1c2cc(O)cc(O)c2C(=O)c2c1cc1c(c2O)[C@@H]2C=CO[C@@H]2O1`, for which the mutagenic call under setting [7] was “active; positive”.

Consider `C[n+]1c(-c2ccc(N)cc2)c2cc(N)ccc2c2ccc(N)cc21`, for which the mutagenic call under setting [9] was “active; positive”.

For the molecule `CC(=O)[O-].CC(=O)[O-].O.O.O.[Pb+2]`, the mutagenic call reads like this: (Species/Cell Type: Allium cepa, Assay Type: Chromosome aberrations, Assay Code: ALC+D, Dose Response: With dose response, Evaluation Type: Evaluation A (Pre-1980)) “active; positive”; under setting [10], “no conclusion”.

Turning to `C1CN1P1(N2CC2)=NP(N2CC2)(N2CC2)=NP(N2CC2)(N2CC2)=N1`, the mutagenic call was “active; positive” (Species/Cell Type: Neurospora crassa, Assay Type: Forward gene mutation, Assay Code: NEF+, Evaluation Type: Evaluation A (Pre-1980)) and “active; positive” (Species/Cell Type: Nonhuman, Assay Type: Sister-chromatid exchange (SCE) in vivo, Assay Code: SC3+, Evaluation Type: Evaluation B (Post-1980)).

For `CCN(CC)CCNc1ccc(O)c2c1C(=O)c1ccccc1S2=O` (stereo not given), the mutagenic call under setting [5] was “active; positive”.

For `O=C(CCCCCCCCC(=O)N1CC1)N1CC1`, the mutagenic call under setting [1] was “active; positive” and the mutagenic call (Species/Cell Type: Vicia faba, Assay Type: Chromosome aberrations, Assay Code: VIC+D, Dose Response: With dose response, Evaluation Type: Evaluation A (Pre-1980)) is “active; positive”.

As for `CCCCN(CC(O)CCO)N=O` (stereo not given), the mutagenic call under setting [7] is “active; positive”.

For the molecule `Nc1cccc2c(N)cccc12`, the call under setting [4] is “active; positive”.
